Reference: patent publication US20020133846A1, “Method for protecting plants” (priority 1996, published 2002)
Where two headings read alike, the source gives them in different places.

Key:
[1] = test system: Peronospora parasitica NoCo2; assay: whole plant or invertebrate; type: in vivo
[2] = test system: Peronospora parasitica isolate Emwa; assay: Action against Peronospora parasitica in Arabidopsis overexpressing NIM1 (lines 6E, 7C) and wild-type Ws; type: in vivo
Source text: The plant lines used in this example (6E and 7C) were generated from transformation of wild-type Arabidopsis thaliana plants (ecotype Ws) with the BamHI-HindIII NIM1 genomic fragment (SEQ ID NO:1—bases 1249-5655), as described above in Example 21. The fungicides metalaxyl, fosetyl, and copper hydroxide, formulated as 25%, 80%, and 70% active ingredient (ai), respectively, with a wettable powder carrier, were applied as fine mist to leaves of three week-old transgenic Ws plants constitutively expressing the NIM1 gene. The wettable powder alone was applied as a control. Three days later, plants were inoculated with a Peronospora parasitica isolate Emwa conidial suspension (1-2×10^5 spores/ml), as described in Delaney et al. (1995). Following inoculation, plants were covered to maintain high humidity and were placed in a Percival growth chamber at 17° C. with a 14-hr day/10-hr night cycle (Uknes et al., 1993). Tissue was harvested 8 days after inoculation.
Fungal infection progression was followed for 12 days by viewing under a dissecting microscope to score development of conidiophores (Delaney, et al. (1994); Dietrich, et al. (1994)). Lactophenoltrypan blue staining of individual leaves was carried out to observe fungal growth within leaf tissue. Fungal growth was quantified using a rRNA fungal probe obtained by PCR according to White et al. (1990; PCR Protocols: A guide to Methods and Application, 315-322) using primers NS1 and NS2 and P. parasitica EmWa DNA as templates. RNA was purified from frozen tissue by phenol/chloroform extraction following lithium chloride precipitation (Lagrimini et al, 1987: PNAS, 84: 7542-7546). Samples (7.5 μg) were separated by electrophoresis through formaldehyde agarose gels and blotted to nylon membranes (Hybond-N+, Amersham) as described by Ausbel et al. (1987). Hybridizations and washing were according to Church and Gilbert (1984, PNAS, 81: 1991-1995). Relative amounts of the transcript were determined using a Phosphor Imager (Molecular Dynamics, Sunnyvale, Calif.) following manufacturers instructions. Sample loading was normalized by probing stripped filter blots with the constitutively expressed b-tubulin Arabidopsis cDNA.

[3] = Cu(OH)2 0.02 g/l, NIM1 overexpression line 6E
[4] = Cu(OH)2 0.02 g/l, NIM1 overexpression line 7C
[5] = Cu(OH)2 0.2 g/l, NIM1 overexpression line 6E
[6] = Cu(OH)2 0.2 g/l, NIM1 overexpression line 7C
[7] = Cu(OH)2 2.0 g/l, NIM1 overexpression line 6E
[8] = Cu(OH)2 2.0 g/l, NIM1 overexpression line 7C

Compound: COCC(=O)N(c1c(C)cccc1C)C(C)C(=O)OC (racemic) [metalaxyl]
- inhibition at 0.02 µg/mL ([1]; Hyaloperonospora parasitica, in Arabidopsis thaliana, read-out: Fungal Growth Inhibition % O (observed), Table 33, cim3 mutant, metalaxyl 0.02 mg/l): 55.6%
- inhibition at 0.1 µg/mL ([1]; Hyaloperonospora parasitica, in Arabidopsis thaliana, read-out: Fungal Growth Inhibition % O (observed), Table 33, cim3 mutant, metalaxyl 0.1 mg/l): 57.8%
- inhibition at 2.5 µg/mL ([1]; Hyaloperonospora parasitica, in Arabidopsis thaliana, read-out: Fungal Growth Inhibition % O (observed), Table 33, cim3 mutant, metalaxyl 2.5 mg/l): 82.2%
- Synergy Factor O/E ([1]; Table 33, cim3 mutation + metalaxyl 0.1 mg/l): 4.6
- Synergy Factor O/E ([1]; Table 33, cim3 mutation + metalaxyl 2.5 mg/l): 6.6
- inhibition at 1.2 µg/mL ([2]; Hyaloperonospora parasitica, in Arabidopsis thaliana, Table 36, NIM1 overexpression line 6E, metalaxyl 0.0012 g/l, read-out: Fungal Growth Inhibition % O (observed)): 56%
- inhibition at 12.5 µg/mL ([2]; Hyaloperonospora parasitica, in Arabidopsis thaliana, Table 36, NIM1 overexpression line 6E, metalaxyl 0.0125 g/l, read-out: Fungal Growth Inhibition % O (observed)): 76%
- Synergy Factor O/E ([2]; Table 36, NIM1 overexpression line 6E + metalaxyl 0.0012 g/l): 1.5
- Synergy Factor O/E ([2]; Table 36, NIM1 overexpression line 6E + metalaxyl 0.0125 g/l): 1.1

Compound: CSC(=O)c1cccc2nnsc12 [BTH]
- inhibition at 10 µM ([1]; Hyaloperonospora parasitica, in Arabidopsis thaliana, read-out: Fungal Growth Inhibition % O (observed), Table 34, cim3 mutant, BTH 0.01 mM): 16.6%
- inhibition at 30 µM ([1]; Hyaloperonospora parasitica, in Arabidopsis thaliana, read-out: Fungal Growth Inhibition % O (observed), Table 34, cim3 mutant, BTH 0.03 mM): 73.1%
- Synergy Factor O/E ([1]; Table 34, cim3 mutation + BTH 0.01 mM): 1.3
- Synergy Factor O/E ([1]; Table 34, cim3 mutation + BTH 0.03 mM): 2.2

Compound: [Cu+2].[OH-].[OH-] [Cu(OH)2, copper hydroxide]
- Fungal Growth Inhibition % O (observed) [2, 3]: 20%
- Synergy Factor O/E [2, 3]: 2.0
- Fungal Growth Inhibition % O (observed) [2, 4]: 55%
- Synergy Factor O/E [2, 4]: 3.9
- Fungal Growth Inhibition % O (observed) [2, 5]: 14%
- Synergy Factor O/E [2, 5]: 1.4
- Fungal Growth Inhibition % O (observed) [2, 6]: 51%
- Synergy Factor O/E [2, 6]: 3.6
- Fungal Growth Inhibition % O (observed) [2, 7]: 66%
- Synergy Factor O/E [2, 7]: 6.6
- Fungal Growth Inhibition % O (observed) [2, 8]: 77%
- Synergy Factor O/E [2, 8]: 5.5
- synergy factor ([2]; NIM1 overexpression line 7C + copper hydroxide 2.0 g/l): 5.5
- fungal growth inhibition (observed) ([2]; NIM1 overexpression line 7C, copper hydroxide 2.0 g/l): 77%

Compound: CCO[PH](=O)O [fosetyl, ethyl hydrogen phosphonate]
- inhibition at 50 µg/mL ([2]; Hyaloperonospora parasitica, in Arabidopsis thaliana, Table 37, NIM1 overexpression line 6E, fosetyl 0.05 g/l, read-out: Fungal Growth Inhibition % O (observed)): 42%
- inhibition at 500 µg/mL ([2]; Hyaloperonospora parasitica, in Arabidopsis thaliana, Table 37, NIM1 overexpression line 6E, fosetyl 0.5 g/l, read-out: Fungal Growth Inhibition % O (observed)): 83%
- inhibition at 500 µg/mL ([2]; Hyaloperonospora parasitica, in Arabidopsis thaliana, fosetyl 0.5 g/l, NIM1 overexpression line 7C, read-out: Fungal Growth Inhibition % O (observed)): 56%
- inhibition at 5000 µg/mL ([2]; Hyaloperonospora parasitica, in Arabidopsis thaliana, read-out: Fungal Growth Inhibition % O (observed), Table 37, NIM1 overexpression line 6E, fosetyl 5.0 g/l): 93%
- inhibition at 5000 µg/mL ([2]; Hyaloperonospora parasitica, in Arabidopsis thaliana, read-out: Fungal Growth Inhibition % O (observed), fosetyl 5.0 g/l, NIM1 overexpression line 7C): 80%
- Synergy Factor O/E ([2]; Table 37, NIM1 overexpression line 6E + fosetyl 0.05 g/l): 4.2
- Synergy Factor O/E ([2]; Table 37, NIM1 overexpression line 6E + fosetyl 0.5 g/l): 6.9
- Synergy Factor O/E ([2]; Table 37, NIM1 overexpression line 6E + fosetyl 5.0 g/l): 5.5
- Synergy Factor O/E ([2]; fosetyl 0.5 g/l, NIM1 overexpression line 7C): 3.5
- Synergy Factor O/E ([2]; fosetyl 5.0 g/l, NIM1 overexpression line 7C): 3.8
